In US20150359847A1, “METHOD AND COMPOSITION FOR CONFERRING NEUROPROTECTION” (BLOOD SYSTEMS RESEARCH INSTITUTE, priority 2014, published 2015):

Key:
MMP-9 [1] = molecular target: T1, MMP-9 (Homo sapiens, UniProt P14780); assay: SensoLyte Fluorimetric MMP-9 Activity Assay; type: biochemical; details: GM6001
From the text: (§1) SensoLyte Fluorimetric MMP-2 Activity Assay Kit™ (Cat#71151) and SensoLyte Fluorimetric MMP-9 Activity Assay Kit™ (Cat#71155) were purchased from AnaSpec (Fremont, Calif.) and performed per manufacturer's instructions.
Target sequence in this assay (P14780 94-707, species assumed): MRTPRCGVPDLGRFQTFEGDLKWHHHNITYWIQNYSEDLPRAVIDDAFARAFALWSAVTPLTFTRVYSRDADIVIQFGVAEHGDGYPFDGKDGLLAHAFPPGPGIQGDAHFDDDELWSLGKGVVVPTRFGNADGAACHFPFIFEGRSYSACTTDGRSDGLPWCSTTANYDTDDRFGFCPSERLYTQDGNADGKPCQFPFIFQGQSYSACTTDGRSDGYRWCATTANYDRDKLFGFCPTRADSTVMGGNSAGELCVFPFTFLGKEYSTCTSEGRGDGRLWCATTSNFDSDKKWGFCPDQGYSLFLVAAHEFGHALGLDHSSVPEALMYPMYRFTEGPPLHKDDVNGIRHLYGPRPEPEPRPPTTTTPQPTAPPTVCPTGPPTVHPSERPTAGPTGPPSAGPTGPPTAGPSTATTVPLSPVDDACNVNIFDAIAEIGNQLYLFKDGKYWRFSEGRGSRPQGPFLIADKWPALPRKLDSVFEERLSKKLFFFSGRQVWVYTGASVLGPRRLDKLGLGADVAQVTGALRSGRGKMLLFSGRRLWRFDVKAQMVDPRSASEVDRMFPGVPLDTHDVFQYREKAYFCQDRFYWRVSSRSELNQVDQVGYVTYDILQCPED

[2] = system: phospho-AKT(Ser473) in SH-SY5Y cells; assay: Akt (Ser473) phosphorylation in differentiated SH-SY5Y cells (antibody array, western blot, Phosflow); type: cell-based, human
Procedure: SH-SY5Y cells were obtained from ATCC (Cat# CRL-2266, Manassas, Va.) and were cultured in DMEM and 10% FBS up to passage 10. For differentiation of SH-SY5Y cells into a neuronal phenotype, cells were first plated in DMEEM+10% FBS for 24 hrs before exchanging media in DMEM+1% FBS 10 μM retinoic acid. Differentiation was performed for 3 days before experimentation. Hippocampal neurons were prepared according to the protocol by Beaudoin et al. (Nature Protocols 2012; 7(9):1741-1754) with minor modifications. In brief, after trypsin digestion of hippocampi isolated from P1 mouse pups single cell suspensions was created by trituration and plated onto Biocoat™ poly-D-lysine coated 12-well plates (Cat#354470, BD Biosciences, San Jose, Calif.). 2 pups were used per well and cell suspensions were incubated for 10 minutes per well for a total of 6 wells. The serial incubation allowed for variation in cell densities applicable to different experiments but also contributed to the reduction in non-neuronal cells. Typically wells 1-2 were pooled for western blotting and wells 4-5 were used for imaging following treatments. After the initial plating cells were incubated for 2 hrs before media was completely exchanged for maintenance media that was supplemented with 1 μM of the anti-mitotic cytosine arabinoside in order to further reduce non-neuronal cells. For western blot, cells were cultured for 7 days before experimentation. Half of maintenance media was exchanged on day 2 and day 5. For morphology experiments, treatments were initiated upon the introduction of maintenance media and was renewed 48 hrs later for a further 24 hrs of treatment. Experiments were terminated by fixation for 20 minutes with 4% paraformaldehyde after which cells were stored at 4° C. in PBS prior to staining protocols.
(§2) Pathscan Antibody™ array kits were purchased from Cell Signaling Technologies (Danvers, Mass.). PathScan® RTK signaling antibody array kit (Fluorescent Readout, Cat#7949) and PathScan™ Akt signaling antibody array kit (Fluorescent Readout, Cat#9700) were performed as per manufacturer's instructions. Imaging was performed on a LI-COR Odyssey™ infrared scanner and pixel densities measured by in house LI-COR Image™ suite software.
After experimentation, SH-SY5Y cells were detached from culture ware via trypsin digestion and rapidly mixed with an equal volume of BD cytofix fixation buffer (Cat#554655. BD Biosciences, San Jose, Calif.). After wash steps with PBS cells were permeabilized with BD phosflow Perm Buffer III (Cat#558050. BD Biosciences, San Jose, Calif.) and incubated on ice for 30 mins. After washing in BD stain buffer (Cat#554657. BD Biosciences, San Jose, Calif.) cells were counted and 1×10^6 cells were used antibody incubation. Negative IgG compensation control was obtained using ABC control beads (Cat# A10344. Life Technologies, Grand Island, N.Y.). Antibody incubations were conducted for 30 mins at RT in the dark. Following wash steps the volume was adjusted to 500 μl and results obtained using and LSR II flow cytometer and analyzed using Flowjo™ cytometric analytical software version 8.8.7.
Cell lysates for western blotting were prepared with RIPA buffer (Cat#89900. Thermofisher Scientific, Rockford, Ill.) supplemented with phosphatase inhibitor cocktail 2 (Cat# P5726. Sigma, St Louis, Mo.), phosphatase inhibitor cocktail 3 (Cat# P0044. Sigma, St Louis, Mo.) and complete protease inhibitor (Cat#1862209. Thermofisher Scientific, Rockford, Ill.). Complete homogenization was ensured by brief sonication using a Branson Sonifier 150, (Branson Ultrasonics Corporation, Danbury, Conn.). Protein content was quantified with a Pierce BCA protein assay kit per manufacturer's instructions (Cat#23225. Thermofisher Scientific, Rockford, Ill.).
(§3) Lysates was analyzed in conjuncture with the LI-COR Odyssey™ infra-red imaging system. […]

[3] = system: S6 Ribosomal Protein (S235/236) in SH-SY5Y cells; assay: S6 Ribosomal Protein (S235/236) phosphorylation in SH-SY5Y cells; type: cell-based, human; details: 10 μM GM6001, 15 minutes
Procedure: (§4) SH-SY5Y cells were obtained from ATCC (Cat# CRL-2266, Manassas, Va.) and were cultured in DMEM and 10% FBS up to passage 10. For differentiation of SH-SY5Y cells into a neuronal phenotype, cells were first plated in DMEEM+10% FBS for 24 hrs before exchanging media in DMEM+1% FBS 10 μM retinoic acid. Differentiation was performed for 3 days before experimentation. Hippocampal neurons were prepared according to the protocol by Beaudoin et al. (Nature Protocols 2012; 7(9):1741-1754) with minor modifications. In brief, after trypsin digestion of hippocampi isolated from P1 mouse pups single cell suspensions was created by trituration and plated onto Biocoat™ poly-D-lysine coated 12-well plates (Cat#354470, BD Biosciences, San Jose, Calif.). 2 pups were used per well and cell suspensions were incubated for 10 minutes per well for a total of 6 wells. The serial incubation allowed for variation in cell densities applicable to different experiments but also contributed to the reduction in non-neuronal cells. […]
as §2
Cell lysates for western blotting were prepared with RIPA buffer (Cat#89900. Thermofisher Scientific, Rockford, Ill.) supplemented with phosphatase inhibitor cocktail 2 (Cat# P5726. Sigma, St Louis, Mo.), phosphatase inhibitor cocktail 3 (Cat# P0044. Sigma, St Louis, Mo.) and complete protease inhibitor (Cat#1862209. Thermofisher Scientific, Rockford, Ill.). […] Protein content was quantified with a Pierce BCA protein assay kit per manufacturer's instructions (Cat#23225. Thermofisher Scientific, Rockford, Ill.).
as §3

MMP-2 [4] = molecular target: T2, MMP-2 (Homo sapiens, UniProt P08253); assay: SensoLyte Fluorimetric MMP-2 Activity Assay; type: biochemical; details: GM6001
T2 sequence (P08253 110-660): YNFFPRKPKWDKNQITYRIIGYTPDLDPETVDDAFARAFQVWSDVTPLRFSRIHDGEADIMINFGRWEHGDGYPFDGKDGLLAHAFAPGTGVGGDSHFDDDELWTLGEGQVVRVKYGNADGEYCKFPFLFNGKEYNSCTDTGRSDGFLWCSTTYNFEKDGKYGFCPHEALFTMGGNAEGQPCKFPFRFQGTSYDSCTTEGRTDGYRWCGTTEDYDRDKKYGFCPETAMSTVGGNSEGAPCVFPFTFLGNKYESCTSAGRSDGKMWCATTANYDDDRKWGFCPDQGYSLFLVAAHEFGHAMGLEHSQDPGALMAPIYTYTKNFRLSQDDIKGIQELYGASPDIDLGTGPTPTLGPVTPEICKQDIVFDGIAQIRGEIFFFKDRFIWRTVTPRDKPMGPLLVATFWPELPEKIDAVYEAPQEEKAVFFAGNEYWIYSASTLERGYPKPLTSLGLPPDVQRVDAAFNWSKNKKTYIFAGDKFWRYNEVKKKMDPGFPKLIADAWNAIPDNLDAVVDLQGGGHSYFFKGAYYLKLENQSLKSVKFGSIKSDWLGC
From the text: as §1

MMP-9 [5] = molecular target: T1, MMP-9; assay: cell-based or functional assay
Target sequence in this assay (P14780 107-707 limits assumed): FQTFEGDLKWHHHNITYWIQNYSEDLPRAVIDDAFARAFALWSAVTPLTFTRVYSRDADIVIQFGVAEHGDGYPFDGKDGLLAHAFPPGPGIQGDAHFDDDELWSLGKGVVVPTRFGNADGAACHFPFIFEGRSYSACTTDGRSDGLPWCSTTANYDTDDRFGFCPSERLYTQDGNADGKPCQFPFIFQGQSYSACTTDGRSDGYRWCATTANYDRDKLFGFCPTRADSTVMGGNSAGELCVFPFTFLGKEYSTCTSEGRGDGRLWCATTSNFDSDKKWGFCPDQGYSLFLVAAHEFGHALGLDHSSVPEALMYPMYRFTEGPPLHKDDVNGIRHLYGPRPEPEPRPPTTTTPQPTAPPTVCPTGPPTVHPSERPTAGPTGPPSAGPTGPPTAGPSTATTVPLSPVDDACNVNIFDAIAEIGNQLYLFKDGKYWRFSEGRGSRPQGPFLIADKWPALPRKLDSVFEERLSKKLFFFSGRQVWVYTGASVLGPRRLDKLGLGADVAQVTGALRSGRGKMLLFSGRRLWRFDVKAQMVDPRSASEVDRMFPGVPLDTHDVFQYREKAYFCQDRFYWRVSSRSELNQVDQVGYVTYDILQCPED

MMP-2 [6] = molecular target: MMP-2 (UniProt P08253); assay: cell-based or functional assay
[7] = Brain distribution of IV infra-red tagged TIMP3 post-TBI; type: in vivo, mouse; details: coronal section through impact site, n=2
From the text: FIGS. 2A-2B are graphical representations depicting various data relating to intravenous TIMP3 which preserves vulnerable neuronal populations in the hippocampus. (A) Coronal section through the impact site showing target coverage following IV administration of an infra-red tagged TIMP3. Spectrum bar indicates the intensity of the distribution. […] (B) NeuN staining of post-mitotic mature neurons 7 days post-TBI. Representative photomi-crographs of ipsilateral hippocampi from the 3 groups show NeuN staining in the granule cell layer (GCL) and Hilus (HL) of the dentate gyrus. Highlighted area panels show enhanced view of NeuN+ve hilar interneurons. Scale bar=100 μm. Lower panel, quantification of NeuN+ve neurons in the HL. n=4, 4 section per animal, mean±s.e.m. […] (C) DCX staining of neural progenitors/immature neurons 7 days post-TBI. Representative photomi-crographs of ipsilateral hippocampi from the 3 groups showing DCX staining in the subgranule zone (SGZ) of the dentate gyrus. Highlighted area panels show enhanced view of DCX positive immature neurons. […] Lower panel, quantification of DCX+ve neurons, n=4, 4 sections per animal, mean±s.e.m.
Subsequently, the inventors sought to determine the effects IV TIMP3 post-TBI on hippocampal neuronal populations. […] To further examine the effects of TIMP3 on neuronal cells the presence of neural progenitors was quantified by DCX staining. […]

hippocampal neurons = assay: Sholl analysis of isolated hippocampal neurons; type: cell-based, mouse; details: shRNA vs scrambled sequence (SCR); 7 days post-transfection
Procedure: as §4
Sholl analysis on processed images of isolated hippocampal neurons was conducted using the Fiji derivation of Image J. (Hypertext Transfer Protocol://Fiji.sc.Fiji). […] After neurites had been traced the images were rendered as an analyzed skeleton and Sholl analysis was run on the image from the Analyze menu option.

mTOR = assay: Real-time PCR of mTOR message in transfected hippocampal neurons; type: cell-based, mouse; details: 7 days post-transfection; during TIMP3 treatment; relative to actin
Procedure: Primary hippocampal neuron suspensions were transfected post-trituration and prior to plating. Neurons were ‘Nucleofected’ using a 4D-Nucleofector™ System (Lonza, Walkersville, Md.) in conjunction with a P3 Primary Cell 4D-Nucleofector® X Kit. In brief, 5×10^5 cells were nucleofected with 1.5 μg DNA resuspended in 100 μl of P3 solution after which cells were plated and cultured per normal protocol.
Plasmid vector pENN.AAV.U6.ShRLuc.CMV.eGFP.SV40 was provided by the Penn vector core, University of Pennsylvania, (Philadelphia, Pa.). mTOR shRNA sequence was chosen based on the previous publication by Jaworrski et al (43). Sequence ‘mTOR3071’ was chosen based on complete sequence identity between rat and mouse genes. Scrambled sequence (SCR) was designed using the online scramble design tool by genscript on the World Wide Web at genscript.com/ssl-bin/app/scramble. […]
Cells were lysed using 0.7 mL of QIAzol™ reagent (Qiagen, Valencia Calif.), followed by 15 min centrifugation at 12,000 g at 4° C. […] Quantitative real-time PCR measuring mouse-specific mTOR and Beta-actin (ACTB) genes using Taqman™ real time PCR was performed using the ABI ViiA 7 Real-Time PCR System™. Raw cycle threshold (Ct) numbers of amplified mTOR gene products were normalized to the housekeeping gene ACTB to control for cDNA input amounts. mRNA relative copy number was determined using the comparative Ct method.

CNC(=O)[C@H](Cc1c[nH]c2ccccc12)NC(=O)[C@@H](CC(=O)NO)CC(C)C [GM6001, reference compound]
MMP-9 inhibition (Sensolyte FRET assay) (MMP-9 [1]): complete MMP inhibition | phosphorylation of Akt (Ser473), western blot ([2]; 10 μM GM6001, 15 minutes): did not result in increased phosphorylation | phosphorylation of S6RP (S235/236), western blot [3]: did not result in increased phosphorylation | MMP-2 inhibition (Sensolyte FRET assay) (MMP-2 [4]): complete MMP inhibition

CO[C@H]1C[C@@H]2CC[C@@H](C)[C@@](O)(O2)C(=O)C(=O)N2CCCC[C@H]2C(=O)O[C@H]([C@H](C)C[C@@H]2CC[C@@H](O)[C@H](OC)C2)CC(=O)[C@H](C)/C=C(\C)[C@@H](O)[C@@H](OC)C(=O)[C@H](C)C[C@H](C)/C=C/C=C/C=C/1C [rapamycin, Rapamycin, reference compound]
Akt (Ser473) phosphorylation with rapamycin, western blot ([2]; rapamycin pre-treatment with TIMP3): not inhibited

Recombinant TIMP3 (tissue inhibitor of matrix metalloproteinase-3) (from UniProt P35625 24-211)
Sensolyte FRET assay of MMP-9 enzyme activity; TIMP3 concentration that gives full inhibition (MMP-9 [5]): 1 µg/mL | Sensolyte FRET assay of MMP-2 enzyme activity; TIMP3 concentration that gives full inhibition (MMP-2 [6]): 1 µg/mL

B1: infra-red tagged TIMP3: Infra-red tagged version of recombinant TIMP3, obtained from Amgen Inc. (protein, UniProt P35625 24-211, looked up)
Metalloproteinase inhibitor 3: CTCSPSHPQDAFCNSDIVIRAKVVGKKLVKEGPFGTLVYTIKQMKMYRGFTKMPHVQYIHTEASESLCGLKLEVNKYQYLLTGRVYDGKMYTGLCNFVERWDQLTLSQRKGLNYRYHLGCNCKIKSCYYLPCFVTSKNECLWTDMLSNFGYPGYQSKHYACIRQKGGYCSWYRGWAPPDKSIINATDP
modifications: infra-red dye label
penetrance into the ipsilateral hippocampus after IV administration [7]: penentrance of TIMP3 into the ipsilateral hippocampus

B2: shRNA against mTOR: shRNA sequence mTOR3071 (SEQ ID NO: 1) cloned into plasmid pENN.AAV.U6.ShRLuc.CMV.eGFP.SV40 (nucleic acid)
guide: GGAUCCGAGCCACATCCGTCCCTACTTCAAGAGAGTAGGGACGGATGTGGCTCTTTTTGAAUCC
effect on TIMP3-promoted neurite outgrowth (Sholl analysis) (hippocampal neurons): significantly inhibited the effects of TIMP3 on neurite outgrowth | reduction of mTOR message levels compared to SCR (mTOR): approximately 50%
